Measured values reported in US9034929B2, “Aminoalcohol and biocide compositions for aqueous based systems” (ANGUS Chemical Company, priority 2007, dated 2015).

Tests used:
[1] = system: fungi of a mixed bacterial/fungal inoculum isolated from spoiled metalworking fluids; experiment: ASTM Practice E 2275-03 microbial challenge test of diluted metalworking fluids, fungal counts; assay type: cell-based
Description: (§1) This compound was formulated at 8% by weight into a generic semi-synthetic metalworking fluid concentrate as described in Table 1. Identical formulations were prepared except substituting conventional amino alcohol compounds for 3A4O. The conventional amino alcohols were 2-amino-2-methyl-1-propanol (AMP) and n-butylethanolamine (BEA). An identical set of fluid concentrates was prepared including 1.5% of a 77% aqueous solution of 1,3,5-tris(2-hydroxyethyl)-s-triazine preservative, allowing us to evaluate fluids with and without preservative. The fluid concentrates were diluted at a rate of 20 parts Chicago tap water to 1 part fluid concentrate (by weight); the active amino alcohol concentration at dilution was therefore approximately 0.4% and the active preservative dosage (in the preserved set) was approximately 0.058%. These fluids were subjected to microbial challenge testing by ASTM Practice E 2275-03. In this method fluids are inoculated initially and then weekly with a mixed bacterial/fungal inoculum isolated from spoiled metalworking fluids. The bacterial and fungal counts are measured weekly using a serial dilution plate count method, and reported as colony forming units per milliliter (CFU/mL). The lower the CFU/mL the better the microbial control, and the longer the predicted service life of the fluid. The microbial results are described in FIGS. 1 & 2 (unpreserved) and FIGS. 3 & 4 (preserved with triazine).
(§2) This material was formulated into the same metalworking fluid concentrate described in Example A, at an 8% concentration. Identical fluids were prepared using 8% 2-amino-2-methyl-1-propanol (AMP) and 8% dicyclohexylamine (DCHA). The preservative benzisothiazolinone (BIOBAN BIT 20 DPG from Dow Biocides) was added to each fluid concentrate at 1.2%, giving an active concentration of 0.24% in the fluid concentrates and 0.012% in the use diluted fluids. The diluted fluids were subjected to the same microbial testing protocol described in Example A, and the results are described in FIGS. 5 & 6.
In order to understand the influence of use level of the amino alcohols of the invention, we prepared similar semi-synthetic fluid concentrates as described previously but using 4% amino alcohol to give 2000 ppm at use dilution; the difference in the formulation was made up with water. The fluid concentrates were preserved with the same level of triazine-77% described previously. These fluids were diluted and subjected to the same bacterial/fungal challenge tests described in Examples A and B; the data are found in FIGS. 8 & 9. […]

[2] = system: bacteria of a mixed bacterial/fungal inoculum isolated from spoiled metalworking fluids; experiment: ASTM Practice E 2275-03 microbial challenge test of diluted metalworking fluids, bacterial counts; assay type: cell-based; settings: for bacterial growth / resistance to bacterial attack: 8% amino alcohol fluid with benzisothiazolinone (BIT), 0.012% active in diluted fluid, FIG. 5
Description: as §1, §2
In order to understand the influence of use level of the amino alcohols of the invention, we prepared similar semi-synthetic fluid concentrates as described previously but using 4% amino alcohol to give 2000 ppm at use dilution; the difference in the formulation was made up with water. The fluid concentrates were preserved with the same level of triazine-77% described previously. These fluids were diluted and subjected to the same bacterial/fungal challenge tests described in Examples A and B; the data are found in FIGS. 8 & 9.
FIGS. 10-17 provide additional comparisons between 3-amino-4-octanol (3A4O), an aminoalcohol of the invention, and the non-invention aminoalcohol compounds 2-amino-2-methyl-1-propanol (AMP) and n-butylethanolamine (BEA), in conjunction with various biocides. In particular, FIGS. 10 and 11 bacterial and fungal efficacy comparisons of the aminoalcohols with BIOBAN P-1487 (a combination of 4-(2-nitrobutyl)-morpholine with 4,4′-(2-ethyl-2-nitrotrimethylene)dimorpholine). This biocide was added to give 750 ppm in the diluted fluid. The amine dosage was adjusted to give 4000 ppm at dilution. FIGS. 12 and 13 show bacterial and fungal efficacies of the aminoalcohols in the presence of a triazine/IPBC biocide blend. Triazine-78% was added at 750 ppm based on diluted fluid and iodopropynylbutylcarbamate (IPBC) added at 300 ppm active at dilution. The amine dosage was adjusted to give 3000 ppm at dilution. FIGS. 14 and 15 show bacterial and fungal efficacy of the compounds with Benzisothiazolinone (BIT). BIT was added at 120 ppm active based on diluted fluid and iodopropynylbutylcarbamate (IPBC) added at 300 ppm active at dilution. The amine dosage was adjusted to give 3000 ppm at dilution. FIGS. 16 and 17 show bacterial and fungal efficacy of the aminoalcohols with a chloromethylisothiazolinone/methylisothiazolinone (CMIT/MIT) blend. […]

[3] = system: mycobacterium immunogenum (ATTCC strain 700505); experiment: ASTM microbial challenge test with mycobacterial inoculum; assay type: cell-based; settings: 8% amino alcohol fluid with 1.5% triazine preservative (77% active) in concentrate; FIG. 7
pseudomonas aeroginosa = settings: stated as known; cited from earlier work
[4] = system: fungi of a mixed bacterial/fungal inoculum isolated from spoiled metalworking fluids; settings: at the dosage used (about 0.058% active at dilution); cited from earlier work

## CCCCC(O)C(C)N (stereo not shown) [2A3H, 2-amino-3-heptanol]
[1]; 8% amino alcohol fluid with benzisothiazolinone (BIT), 0.012% active in diluted fluid, FIG. 6
  fungal growth / resistance to fungal attack: resists attack better than that with AMP, and is comparable in resistance to the fluid with DCHA
[1]; unpreserved semi-synthetic MWF, 8% amino alcohol in concentrate (about 0.4% at dilution), weekly inoculation, FIG. 2
  fungal growth (plate count, CFU/mL): does not significantly inhibit bacterial or fungal growth
[2]
  bacterial growth / resistance to bacterial attack: more resistant to bacterial attack than the others
[2]; unpreserved semi-synthetic MWF, 8% amino alcohol in concentrate (about 0.4% at dilution), weekly inoculation, FIG. 1
  bacterial growth (plate count, CFU/mL): does not significantly inhibit bacterial or fungal growth

## CCCCC(O)C(N)CC (stereo not shown) [3A4O, 3-amino-4-octanol]
[1]; 8% amino alcohol fluid preserved with triazine (about 0.058% active at dilution), FIG. 4
  fungal growth (plate count, CFU/mL): unexpected reduction in growth rate over the full course of the test
[1]; amine 3000-4000 ppm at dilution with BIOBAN P-1487, triazine/IPBC, BIT or CMIT/MIT, FIGS. 11, 13, 15, 17
  enhancement of biocide efficacy against fungi: greater enhancement against fungi
[2]; 8% amino alcohol fluid preserved with triazine (about 0.058% active at dilution), FIG. 3
  bacterial growth (plate count, CFU/mL): unexpected reduction in growth rate over the full course of the test
[2]; amine 3000-4000 ppm at dilution with BIOBAN P-1487, triazine/IPBC, BIT or CMIT/MIT, FIGS. 10, 12, 14, 16
  enhancement of biocide efficacy against bacteria: increased enhancement of biocide efficacy

## CC(C)(N)CO [AMP, 2-amino-2-methyl-1-propanol, reference compound]
[3]
  mycobacterial growth / resistance: virtually no inhibition of activity
[2]
  bacterial growth / resistance to bacterial attack: relatively poor performance against bacteria

## O=c1[nH]sc2ccccc12 [BIT, benzisothiazolinone]
Pseudomonas aeroginosa
  efficacy against pseudomonas aeroginosa: not to be effective

## C1CCC(NC2CCCCC2)CC1 [DCHA, dicyclohexylamine, reference compound]
[2]
  bacterial growth / resistance to bacterial attack: the opposite is true

## OCCN1CN(CCO)CN(CCO)C1 [triazine preservative, 1,3,5-tris(2-hydroxyethyl)-s-triazine]
[4]
  efficacy of the preservative alone against fungi: not effective against fungi
